In patent publication US20020188202A1, “Method of diagnosis and treatment and related compositions and apparatus” (priority 1996, published 2002):
“Also recorded” adds a separate entry of the source. Structures can show the parent of a compound that is named as a salt. Where two headings read alike, the source gives them in different places.

Experiments:
[1] = tested on: patients with cerebral vasospasm; assay: Vasoactive medications tried on Applicant's patients with vasospasm, monitored by Transcranial Doppler (TCD), exam and symptoms; conditions: for effectiveness in treating the vasospasm: qualitative rating in Applicant's patient population (tend to be the most severe cases); for effect on vessels seen on TCD / ultrasound (vasoconstriction or dilatation) / headache / neurological exam and other neurological abnormalities: human, in vivo; for EEG abnormalities and neurocognitive or neurological complaints / change of the vasospasm: anti-epileptic drugs in therapeutic doses
[2] = tested on: patients with cerebral vasospasm; conditions: human, in vivo
[3] = tested on: patient with migraine, schizophrenic reaction and vasospasm; assay: Case study: psychosis caused by cerebral ischemia, EEG and TCD; assay type: in vivo, human patient; conditions: single patient; for response of psychosis (hallucinations and delusions): in hospital
[4] = IM, lower doses than 90 to 120 mg

CCOC(=O)[C@H](CCc1ccccc1)N[C@@H](C)C(=O)N1Cc2ccccc2C[C@H]1C(=O)O [Accupril, Quinapril]
effectiveness in treating the vasospasm [1]: consistently been the most effective | weaning from oral medications ([1]; with concomitant low dose Nitroglycerin, 1/10th inch once to several times a day): most patients may be eventually weaned from the use of oral medications

C[C@H](CS)C(=O)N1CCC[C@H]1C(=O)O [Capoten, Captopril]
effectiveness in treating the vasospasm [1]: close second tier medications

COc1cc2nc(N3CCN(C(=O)C4COc5ccccc5O4)CC3)nc(N)c2cc1OC (centres unmarked) [Cardura, Doxazosin]
effectiveness in treating the vasospasm [1]: relatively mild medication

Clc1cccc(Cl)c1N=C1NCCN1 [Clonidine]
transient supersensitivity (transient worsening of the vasospasm) on early administration [2]: did not occur | effect on vessels seen on TCD / ultrasound (vasoconstriction or dilatation) [1]: resulted in vascular dilatation | headache [1]: alleviated or treated the headache | neurological exam and other neurological abnormalities [1]: clinical and neurological exam improvement | treating migraine induced depression due to chronic vasospasm ([1]; patients who could not tolerate or respond to other vasodilators): useful in these depressed patients | effectiveness in treating the vasospasm [1]: extremely effective

CN1C[C@H](C(=O)N[C@]2(C)O[C@@]3(O)[C@@H]4CCCN4C(=O)[C@H](Cc4ccccc4)N3C2=O)C[C@@H]2c3cccc4[nH]cc(c34)C[C@H]21 [DHE]
effect on vessels seen on TCD / ultrasound (vasoconstriction or dilatation) [1]: caused vasoconstriction | headache [1]: improved their headache | neurological exam and other neurological abnormalities [1]: worsened the patient's neurological exam and mentation

CCCC(CCC)C(=O)[O-].[Na+] [Depakote, Sodium Valproate]
EEG and flow abnormalities on Transcranial Doppler [3]: without change in their EEG and continued flow abnormalities | EEG abnormalities and neurocognitive or neurological complaints [1]: improved in some patients | change of the vasospasm [1]: none of the medications in therapeutic doses have changed the vasospasm

CC(COc1ccccc1)N(CCCl)Cc1ccccc1 (centres unmarked) [Dibenzyline, Phenoxybenzamine]
effectiveness in treating the vasospasm [1]: relatively mild

COc1ccc([C@@H]2Sc3ccccc3N(CCN(C)C)C(=O)[C@@H]2OC(C)=O)cc1 [Dilacor, Diltiazem]
effectiveness in treating the vasospasm [1]: less effective

O=C1NC(=O)C(c2ccccc2)(c2ccccc2)N1 [Dilantin, Phenytoin]
EEG abnormalities and neurocognitive or neurological complaints [1]: improved in some patients | change of the vasospasm [1]: none of the medications in therapeutic doses have changed the vasospasm

COC(=O)C1=C(C)NC(C)=C(C(=O)OC(C)C)C1c1cccc2nonc12 (centres unmarked) [Dynacirc, isradipine]
transient supersensitivity (transient worsening of the vasospasm) on early administration [2]: did not occur | effect on vessels seen on TCD / ultrasound (vasoconstriction or dilatation) [1]: resulted in vascular dilatation | headache [1]: alleviated or treated the headache | neurological exam and other neurological abnormalities [1]: clinical and neurological exam improvement | effectiveness in treating the vasospasm [1]: extremely effective

O=C(CCCN1CCC(O)(c2ccc(Cl)cc2)CC1)c1ccc(F)cc1 [Haldol, Haloperidol]
response of psychosis (hallucinations and delusions) [3]: did not respond; also recorded: poor response

NNc1nncc2ccccc12 [Hydralazine]
blood pressure changes [2]: tends to cause significant blood pressure changes | transient supersensitivity (transient worsening of the vasospasm) on early administration [2]: did not occur

COc1cc2nc(N3CCN(C(=O)C4CCCO4)CC3)nc(N)c2cc1OC (centres unmarked) [Hytrin, Terazosin]
effectiveness in treating the vasospasm [1]: less successful results; also recorded: has not been found to be effective

CNS(=O)(=O)Cc1ccc2[nH]cc(CCN(C)C)c2c1 [Imitrex, sumatriptan succinate]
effect on vessels seen on TCD / ultrasound (vasoconstriction or dilatation) [1]: caused vasoconstriction | headache [1]: improved their headache | neurological exam and other neurological abnormalities [1]: worsened the patient's neurological exam and mentation

CC(C)NCC(O)COc1cccc2ccccc12 (centres unmarked) [Inderal, Propranolol]
EEG and flow abnormalities on Transcranial Doppler [3]: without change in their EEG and continued flow abnormalities | smoothing out the sympathetic nervous system excitability and variability ([1]; patients being tapered off vasodilators): most effective; also recorded: extremely effective | effectiveness in treating the vasospasm [1]: None of these have been significantly effective at vasodilation

COCCc1ccc(OCC(O)CNC(C)C)cc1 (centres unmarked) [Lopressor, Metoprolol Tartrate]
effectiveness in treating the vasospasm [1]: None of these have been significantly effective at vasodilation

CCOC(=O)[C@H](CCc1ccccc1)N[C@H]1CCc2ccccc2N(CC(=O)O)C1=O [Lotensin, Benazepril]
effectiveness in treating the vasospasm [1]: close second tier medications

CSc1ccc2c(c1)N(CCC1CCCCN1C)c1ccccc1S2 (centres unmarked) [Mellaril, Thioridazine]
effectiveness in treating the vasospasm [1]: has not been effective; also recorded: no significant effects

CN1CCN(CC/C=C2/c3ccccc3Sc3ccc(S(=O)(=O)N(C)C)cc32)CC1 [Navane, Thiothixene]
response of psychosis (hallucinations and delusions) [3]: good response | improvement in the Transcranial Doppler Artery Ultrasound ([1]; patients with TCD mean flow velocities greater than 1.3, within a half hour of 2 mg in 4 ounces of water orally, generally expected): 50% | blood pressure changes ([1]; patients with vasospasm): without causing peripheral blood pressure changes | effectiveness in treating the vasospasm [1]: extremely effective central vasodilator | effectiveness in treating the vasospasm ([1]; listed as Navanne): most effective

CC(CCc1ccccc1)NCC(O)c1ccc(O)c(C(N)=O)c1 (centres unmarked) [Normodyne, Labetolol]
effectiveness in treating the vasospasm [1]: None of these have been significantly effective at vasodilation

NCCCC[C@H](N[C@@H](CCc1ccccc1)C(=O)O)C(=O)N1CCC[C@H]1C(=O)O [Prinivil, Lisinopril]
effectiveness in treating the vasospasm [1]: close second tier medications

CNCCC(Oc1ccc(C(F)(F)F)cc1)c1ccccc1 (centres unmarked) [Prozac]
effectiveness in treating the vasospasm [1]: helpful

COC(=O)[C@H]1[C@H]2C[C@@H]3c4[nH]c5cc(OC)ccc5c4CCN3C[C@H]2C[C@@H](OC(=O)c2cc(OC)c(OC)c(OC)c2)[C@@H]1OC [Reserpine]
effectiveness in treating the vasospasm [1]: very effective; also recorded: extremely effective

Cc1nc2n(c(=O)c1CCN1CCC(c3noc4cc(F)ccc34)CC1)CCCC2 [Respiradol, Respiradone]
tolerability [2]: less well-tolerated in comparison with Thorazine and Navane | patient's symptoms ([1]; antipsychotic agents in patients with vasospasm): generally improved the patient's symptoms | effect on vessels seen on TCD / ultrasound (vasoconstriction or dilatation) [1]: no significant improvement on ultrasound

O=C(O)C(O)C(O)C(=O)O.Oc1ccc2c(c1)[C@@]13CCCC[C@@]1(O)[C@@H](C2)N(CC1CCC1)CC3 [Stadol, butorphanol tartrate]
effect on vessels seen on TCD / ultrasound (vasoconstriction or dilatation) [1]: caused vasoconstriction | headache [1]: improved their headache | neurological exam and other neurological abnormalities [1]: worsened the patient's neurological exam and mentation

NC(=O)N1c2ccccc2C=Cc2ccccc21 [Tegretol, Carbamazepine]
EEG abnormalities and neurocognitive or neurological complaints [1]: improved in some patients | change of the vasospasm [1]: none of the medications in therapeutic doses have changed the vasospasm

CC(C)NCC(O)COc1ccc(CC(N)=O)cc1 (centres unmarked) [Tenormin, Atenolol]
effectiveness in treating the vasospasm [1]: None of these have been significantly effective at vasodilation

CN(C)CCCN1c2ccccc2Sc2ccc(Cl)cc21 [Thorazine, Chlorpromazine]
effectiveness in treating the vasospasm [1]: moderately effected; also recorded: moderately effective

O=C(c1ccccc1)c1ccc2n1CCC2C(=O)O (centres unmarked) [Toradol, ketorolac tromethamine]
effect on Transcranial Doppler ultrasound ([1]; 90 to 120 mg IM doses): causes acute vasodilation on ultrasound in most patients | reversal of reactive vasoconstriction (Nitric Oxide sensitivity reaction) after first nitrate dose ([1]; IM): can be immediately reversed | effectiveness ([1]; IM, doses lower than 90-120 mg): not so effective | effect on Transcranial Doppler ultrasound [1, 4]: generally do not show significant changes | patient-reported symptoms [1, 4]: symptomatic improvement | improvement on Transcranial Doppler Artery Ultrasound ([1]; IV, 30 to 60 mg doses): does not cause any improvement | effect on vessels seen on TCD / ultrasound (vasoconstriction or dilatation) [1]: resulted in vascular dilatation | headache [1]: alleviated or treated the headache | neurological exam and other neurological abnormalities [1]: clinical and neurological exam improvement | vasodilation ([1]; intramuscularly (I.M.) or oral form after oral or I.M. loading): gives the expected vasodilation

NCCCC[C@H](N[C@@H](CCc1ccccc1)C(=O)O)C(=O)N1CCC[C@H]1C(=O)O [Zestril, Lisinopril]
effectiveness in treating the vasospasm [1]: extremely effective
